Data on four compounds can be found in patent publication US20260090983A1, “PARENTERAL NUTRITION FORMULATION” (Baxter International Inc., priority 2018, published 2026).

Entries after “also recorded” stand apart in the source; their conditions may differ. Read-outs that look alike come from different tables or passages of the source.

The test system of series [1] is male Sprague-Dawley rats with steatosis, induced by choline and methionine deficient (MCD) diet. Nature of the series: Aminotransferase (ALT) activity in plasma during parenteral nutrition. It counts as in vivo. Particulars: for development of ALT activity from day 5 to day 17 (FIG. 2): Step #2, LE 10% without or with choline derivative "high" 31 mmol/L, plasma after 5 and 17 days of parenteral nutrition. As to the method: ALT activity is determined by a modification recommended by the International Federation of Clinical Chemistry (IFCC), see also Example 2. ALT catalyzes the reaction of alpha-ketoglutarate with L-alanine to form L-glutamate and pyruvate. Under the action of LDH, pyruvate converts to lactate, and NADH is converted to NAD. The decrease in absorbance of NADH, measured at 340 nm (secondary wavelength is 700 nm), is directly proportional to the serum activity of ALT. It is a kinetic reaction. In general, serum is used for analysis. The serum is separated from the cells within 2 hours of collection and stored at -70° C. until assayed. Monitoring the ALT activity over time in an animal model is used herein as one straightforward and conclusive way to determine the efficacy of GPC in treating liver disease, specifically liver damage caused by a choline-deficient diet (Examples 1 and 2, FIGS. 2 and 3). The effects of GPC as well as of the combination of DHA, ARA and GPC were investigated in a sick animal model, wherein male Sprague-Dawley rats with steatosis, induced by choline and methionine deficient (MCD) diet (S SNIFF MCD pelleted choline/methionine deficient diet (SSNIFF Spezialdiäten GmbH, Soest, Germany, Product No. E15653-94)) were kept on parenteral nutrition. Steatosis was confirmed in the respective groups by histopathology (Example 3). Parenteral nutrition started after 14 days under MCD diet. First measurements were done after 5 days of parenteral nutrition, followed by measurements after 9 and 17 days. The daily lipid uptake was 2.31 g/kg/d. The rats were split into several groups as set forth below in Table I. Two groups served as control groups, wherein a first group was treated with saline solution (0.90% w/v of NaCl in water for injection). A second group received a lipid emulsion (“LE 10%”) containing refined olive oil (80.0 g/L) and refined soybean oil (20.0 g/L) in water for injection, pH 6-8; LE 10% further contained egg lecithin (6.0 g/L), glycerol (11.25 g/L) and sodium oleate (0.15 g/L). LE 10% contained 100 g/L lipids. […] CDP-choline (prepared by fermentation) was from TCI Europe N.V. (Antwerp, Belgium). […] DHA (from algae, Schizochytrium sp.) and ARA (from fungi, Mortierella alpina) were purchased from BASF AG, Germany. Vitamin E was purchased from […].) […] As described before, liver damage (cholestasis) may be determined by increased aminotransferase levels. ALT activity was determined with an AD VIA 1800 blood biochemistry analyzer/IFCC modified (SIEMENS®) according to standard protocols such as described before.

Series [2] shares this test system. Nature of the series: Development of liver weight versus body weight. It counts as in vivo. Particulars: LE 10% without or with choline derivative "high": 31 mmol/L. An excerpt: The effects of GPC as well as of the combination of DHA, ARA and GPC were investigated in a sick animal model, wherein male Sprague-Dawley rats with steatosis, induced by choline and methionine deficient (MCD) diet (S SNIFF MCD pelleted choline/methionine deficient diet (SSNIFF Spezialdiäten GmbH, Soest, Germany, Product No. E15653-94)) were kept on parenteral nutrition.
Parenteral nutrition started after 14 days under MCD diet. First measurements were done after 5 days of parenteral nutrition, followed by measurements after 9 and 17 days. The daily lipid uptake was 2.31 g/kg/d. The rats were split into several groups as set forth below in Table I.
The study groups as described in Example 1 were further evaluated with regard to the development of liver weight versus body weight. An increase in liver weight which is not proportional to the increase of body weight is typical for the development of liver damage, specifically steatosis, as described before.

Series [3] has the same test system. Nature of the series: Histopathological grading of hepatocellular vacuolation of the liver. It counts as in vivo. Particulars: for histopathological examination of the liver, vacuolation (FIG. 4A): Step #2.
Experimental: A part of the liver was preserved in buffered formalin, the infusion sites and the sampled macroscopic lesions were trimmed according to the RITA guidelines, where applicable (Ruchl-Fehlert et al., Exp Toxic Pathol 2003; 5 5, 91-106), embedded in paraffin wax, sectioned at a thickness of approximately four microns and stained with hematoxylin-eosin. The frozen liver sample was cryosectioned in slides of approximately five microns and stained by Oil Red O. Tissue processing was performed at Citoxlab, France.
A microscopic examination was performed on both slides (hematoxylin eosin and Oil Red O) of the liver, the infusion sites and the macroscopic lesions from all animals of the study. Peer review was performed on at least 30% of the animals from the high-dose group and on an adequate number of slides from identified target organs to confirm that findings recorded by the Study Pathologist were consistent and accurate.
Liver samples taken after 8 and 15 days, respectively, were examined as described above and assigned to five grades of hepatocellular vacuolation. Vacuolation was generally diffuse and affected all regions for Grade 5. Periportal areas were lesser affected and the vacuoles were smaller in size for lower grades. Grades have been assigned according to the following definition:
The conditions of series [4]: for Stability upon sterilization (Comment): heat sterilization; for stability of the lipid emulsions during sterilization (heat), in words: lipid emulsions prepared as in Example 1 containing the choline derivative.
Experimental: The choline derivative supplemented “LE” lipid emulsions were prepared as follows. In a first step, raw phases are heated up. In case of the oil phase, soybean and olive oils and egg phosphatide as well as DHA and ARA oils and vitamin E in case of Step #3 experiments are heated in an inox beaker to 75° C. under N2 protection while continuously agitating using an ULTRA TURRAX®. The aqueous phase was prepared by mixing glycerol, sodium oleate and Milli-Q water and constantly heated in an inox beaker to about 75° C. under N2 protection. Where needed, the choline derivative is added under constant agitation. In a second step, the pre-emulsion is prepared by adding the oily phase to the aqueous phase using a peristaltic pump under continuous agitation and then transferred to a high shear inline disperser (e.g. DISPAX REACTOR® DR). The receiving vessel is closed and flushed with nitrogen. In a third step the pre-emulsion is homogenized by passing it several times through a high-pressure homogenizer at 600 bar and a temperature of about 50° C., under a N2 atmosphere.
The emulsion is then adjusted to the required volume (2 L) with Milli-Q water and cooled down to a temperature of approximately 18 to 28° C., preferably 20° C. to 25° C. The pH is adjusted to a range of from 7.8 to 8.8, preferably to about 8.3 to 8.8 with 0.IN NaOH. The emulsion is filtered with a 4.5 μm filter and transferred in 100 mL bags, which are then overpouched, making use of an oxygen absorber/indicator, for later use. The lipid emulsion is then autoclaved at 121° C. to achieve a F0 of at least 15 minutes.
The mark [5] stands for this setting: LE 10% with choline derivative alone (no DHA, ARA), high (31 mmol/L) and low (15 mmol/L) concentration.

For the compound phosphatidylcholine, the “development of ALT activity from day 5 to day 17 (FIG. 2)” value (“development of ALT activity” for short) in series [1] is given as “does not seem to have any effect”. For the same compound, in series [1] (Step #3, LE 10% normal phytosterol without GPC, LE 10% + GPC 40 mmol/L, LE 13% reduced phytosterol + GPC 40 mmol/L), the “ALT activity, change in percent of the normal value for plasma (FIG. 3)” value was “does not seem to have any effect”. Further, the “liver to body weight ratio in percent (FIG. 5)” value in series [2] is on record as “does not seem to have any effect”.

Consider `C[N+](C)(C)CCO.[Cl-]` [Choline Chloride, (2-Hydroxyethyl)trimethylammonium chloride, reference compound], for which the “development of ALT activity” value in series [1] is reported as “neither significantly increases or decreases”. In addition, in series [3] (setting [5]), the “histopathological examination of the liver, vacuolation (FIG. 4A)” value (“histopathological examination” for short) is “fared better than those with only saline or lipid emulsion without any choline derivative”. Further, the “Stability upon sterilization (Comment)” value in series [4] (Concentration 15 mmol/L, lipid emulsions tested LE 10, 13, 20 %) is recorded as “Phase separation”. For the same compound, the “stability of the lipid emulsions during sterilization (heat), in words” value (from here on “stability … in words”) in series [4] is “phase separation of the lipid emulsions during sterilization”. The “liver to body weight ratio in percent (FIG. 5)” value in series [2] was “reduction of the ratio”.

Regarding `C[N+](C)(C)CCOP(=O)([O-])OC[C@H](O)CO` [GPC, glycerophosphocholine], the “development of ALT activity” value in series [1] was “clear drop in ALT activity; also recorded: most pronounced”. For the same compound, the “liver status of the animal, in words” value in series [3] (After 15 days into parenteral nutrition, Step #3, LE 13%, versus saline solution) is “clear and significant improvement of the liver status”. Besides, in series [3] (Day 8, Step #3, phytosterol depleted LE 13%, GPC 40 mmol/L where present, 5 animals per group, Grade 2 = slight/few/small vacuoles), the “Vacuolation; hepatocellular, Grade 2, number of animals” value is reported as “one”. Also, the “Vacuolation; hepatocellular, Grade 3, number of animals” value in series [3] (Day 8, Step #3, phytosterol depleted LE 13%, GPC 40 mmol/L where present, 5 animals per group, Grade 3 = moderate vacuoles) is on record as “one”. The “Vacuolation; hepatocellular, Grade 4, number of animals” value in series [3] (Day 8, Step #3, phytosterol depleted LE 13%, GPC 40 mmol/L where present, 5 animals per group, Grade 4 = marked/many/large vacuoles) is listed as “Three”. Further, the “Vacuolation; hepatocellular, Grade 5, number of animals” value in series [3] (Day 8, Step #3, phytosterol depleted LE 13%, GPC 40 mmol/L where present, 5 animals per group, Grade 5 = severe, diffuse, all liver regions) is listed as “none”. In addition, in series [3] (setting [5]), the “histopathological examination” value is listed as “most significant impact; also recorded: significantly better”. The “Stability upon sterilization (Comment)” value in series [4] (Concentration 30 mmol/L, lipid emulsions tested LE 10, 20 %) is recorded as “Stable emulsion”. Further, the “stability … in words” value in series [4] is “remained stable”. Also, the “liver to body weight ratio in percent (FIG. 5)” value in series [2] is given as “most pronounced reduction of the ratio”.

Take `C[N+](C)(C)CCOP(=O)(O)OP(=O)([O-])OC[C@H]1O[C@@H](n2ccc(N)nc2=O)[C@H](O)[C@@H]1O` [CDP-choline, cytidine diphosphate-choline, reference compound]: the “development of ALT activity” value in series [1] is recorded as “neither significantly increases or decreases”. Also, the “histopathological examination” value in series [3] (LE 10% with choline derivative alone, low concentration, 15 mmol/L) is on record as “also had an effect”. The “Stability upon sterilization (Comment)” value in series [4] (Concentration 30 mmol/L, lipid emulsion tested LE 10 %) was “Phase separation”. Moreover, the “stability … in words” value in series [4] was “phase separation of the lipid emulsions during sterilization”. In addition, in series [2], the “liver to body weight ratio in percent (FIG. 5)” value is “reduction of the ratio”.
